In the assay the target is p38a activated, mitogen-activated protein kinase-activated protein kinase 2 (MAPKAP-K2 or MK2) enzyme (Homo sapiens (Human), UniProt P49137). As to the kind of experiment: MK2 Omnia continuous-read kinase assay for compound potency. It counts as biochemical. The following applies: [MK-2]=0.4 nM, [ATP]=10 μM, [ST3-Sox]=10 μM; room temperature. The gist of the method:
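p38a-activated MK2 (0.4 nM) with 10 μM ATP (apparent Km) and 10 μM S/T3-Sox peptide in Tris pH 7.5 buffer with MgCl2, EGTA and DTT. Fluorescence (ex360/em485) read continuously for 120 min at room temperature. IC50 from initial linear slopes; apparent kinact/KI from kobs of exponential progress-curve fits.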

p38a activated, mitogen-activated protein kinase-activated protein kinase 2 (MAPKAP-K2 or MK2) enzyme, sequence (P49137 whole entry): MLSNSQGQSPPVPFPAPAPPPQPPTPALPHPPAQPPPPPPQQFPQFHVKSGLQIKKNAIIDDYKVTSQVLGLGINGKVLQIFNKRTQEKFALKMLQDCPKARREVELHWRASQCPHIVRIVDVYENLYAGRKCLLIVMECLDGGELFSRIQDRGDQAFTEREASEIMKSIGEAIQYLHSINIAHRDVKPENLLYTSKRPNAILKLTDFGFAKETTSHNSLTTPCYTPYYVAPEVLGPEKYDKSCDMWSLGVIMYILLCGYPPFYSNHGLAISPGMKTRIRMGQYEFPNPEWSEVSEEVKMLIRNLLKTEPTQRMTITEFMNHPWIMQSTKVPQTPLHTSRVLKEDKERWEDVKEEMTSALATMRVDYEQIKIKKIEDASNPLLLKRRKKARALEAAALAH

As for `C#Cc1ncc(C)c(-c2ccc3c(ccc4sc5c(c43)NC[C@@H](C)NC5=O)n2)n1` [Example I-41, (R)-3-(2-ethynyl-5-methylpyrimidin-4-yl)-10-methyl-9,10,11,12-tetrahydro-8H-[1,4]diazepino[5′,6′:4,5]thieno[3,2-f]quinolin-8-one], the IC50 (commonly the concentration needed to halve the response being measured) came to 199 nM.

With `C=Cc1cc(-c2ccc3c(ccc4sc5c(c43)NC[C@@H](C)NC5=O)n2)c(OCCN2CCOCC2)nn1` [Example I-133, (R)-10-methyl-3-(3-(2-morpholinoethoxy)-6-vinylpyridazin-4-yl)-9,10,11,12-tetrahydro-8H-[1,4]diazepino[5′,6′:4,5]thieno[3,2-f]quinolin-8-one], the IC50 was 255 nM.

For `C=Cc1cc(-c2ccc3c(ccc4sc5c(c43)NC[C@@H](C)NC5=O)n2)ncn1` [Example I-34, (R)-10-methyl-3-(6-vinylpyrimidin-4-yl)-9,10,11,12-tetrahydro-8H-[1,4]diazepino[5′,6′:4,5]thieno[3,2-f]quinolin-8-one], the IC50 came out at 13 nM.

As for `C[C@@H]1CNc2c(sc3ccc4nc(-c5cc(Cl)ncc5F)ccc4c23)C(=O)N1` [Example I-69, (R)-3-(2-chloro-5-fluoropyridin-4-yl)-10-methyl-9,10,11,12-tetrahydro-8H-[1,4]diazepino[5′,6′:4,5]thieno[3,2-f]quinolin-8-one], the half-inhibitory concentration (IC50) came to 27 nM.

Regarding `C=Cc1nn(C)nc1-c1ccc2c(ccc3sc4c(c32)NC[C@@H](C)NC4=O)n1` [Example I-232, (R)-10-methyl-3-(2-methyl-5-vinyl-2H-1,2,3-triazol-4-yl)-9,10,11,12-tetrahydro-8H-[1,4]diazepino[5′,6′:4,5]thieno[3,2-f]quinolin-8-one], the IC50 amounted to 77 nM.

In the case of `C=Cc1cc(-c2ccc3c(ccc4sc5c(c43)NC[C@@H](C)NC5=O)n2)cc(N2CC(F)(F)C2)n1` [Example I-184, (R)-3-(2-(3,3-difluoroazetidin-1-yl)-6-vinylpyridin-4-yl)-10-methyl-9,10,11,12-tetrahydro-8H-[1,4]diazepino[5′,6′:4,5]thieno[3,2-f]quinolin-8-one], the IC50 is 175 nM.

Take `C=Cc1cc(-c2ccc3c(ccc4sc5c(c43)NC[C@@H](C)NC5=O)n2)c(COCC)cn1` [Example I-262, (R)-3-(5-(ethoxymethyl)-2-vinylpyridin-4-yl)-10-methyl-9,10,11,12-tetrahydro-8H-[1,4]diazepino[5′,6′:4,5]thieno[3,2-f]quinolin-8-one]: the IC50 was found to be 35 nM.

In the case of `C=Cc1cc(-c2ccc3c(ccc4sc5c(c43)NC[C@@H](C)NC5=O)n2)c(F)cn1` [Example I-70, (R)-3-(5-fluoro-2-vinylpyridin-4-yl)-10-methyl-9,10,11,12-tetrahydro-8H-[1,4]diazepino[5′,6′:4,5]thieno[3,2-f]quinolin-8-one], the IC50 was 64 nM.

`C=Cc1cc(-c2ccc3c(ccc4sc5c(c43)NC[C@@H](C)NC5=O)n2)c(CN2C[C@@H](C)O[C@@H](C)C2)cn1` [Example I-213, (R)-3-(5-(((2S,6R)-2,6-dimethylmorpholino)methyl)-2-vinylpyridin-4-yl)-10-methyl-9,10,11,12-tetrahydro-8H-[1,4]diazepino[5′,6′:4,5]thieno[3,2-f]quinolin-8-one]: the half-maximal inhibitory concentration (IC50) is 103 nM.

Regarding `C=Cc1nncn1-c1ccc2c(ccc3sc4c(c32)NC[C@@H](C)NC4=O)n1` [Example I-203, (R)-10-methyl-3-(3-vinyl-4H-1,2,4-triazol-4-yl)-9,10,11,12-tetrahydro-8H-[1,4]diazepino[5′,6′:4,5]thieno[3,2-f]quinolin-8-one], the IC50 was found to be 9 nM.

`CC#Cc1nccc(-c2ccc3c(ccc4sc5c(c43)NC[C@@H](C)NC5=O)n2)n1` [Example I-53, (R)-10-methyl-3-(2-(prop-1-yn-1-yl)pyrimidin-4-yl)-9,10,11,12-tetrahydro-8H-[1,4]diazepino[5′,6′:4,5]thieno[3,2-f]quinolin-8-one]: the IC50 stood at 213 nM.

Regarding `C[C@@H]1CNc2c(sc3ccc4nc(-c5cc(Cl)nc(COC6CCNCC6)n5)ccc4c23)C(=O)N1` [Example I-14, (R)-3-(6-chloro-2-((piperidin-4-yloxy)methyl)pyrimidin-4-yl)-10-methyl-9,10,11,12-tetrahydro-8H-[1,4]diazepino[5′,6′:4,5]thieno[3,2-f]quinolin-8-one], the IC50 was found to be 12 nM.

In the case of “(10R)-3-(2-(2,6-dimethylmorpholino)-6-vinylpyridin-4-yl)-10-methyl-9,10,11,12-tetrahydro-8H-[1,4]diazepino[5′,6′:4,5]thieno[3,2-f]quinolin- [Example I-201]”, the IC50 turned out to be 73 nM.

On to `C#Cc1cc(-c2ccc3c(ccc4sc5c(c43)NC[C@@H](C)NC5=O)n2)cc(CN2CCN(C)CC2)n1` [Example I-126, (R)-3-(2-ethynyl-6-((4-methylpiperazin-1-yl)methyl)pyridin-4-yl)-10-methyl-9,10,11,12-tetrahydro-8H-[1,4]diazepino[5′,6′:4,5]thieno[3,2-f]quinolin-8-one], for which the IC50 came out at 34 nM.

On to `C=Cc1cncc(-c2ccc3c(ccc4sc5c(c43)NC[C@@H](C)NC5=O)n2)c1` [Example I-82, (R)-10-methyl-3-(5-vinylpyridin-3-yl)-9,10,11,12-tetrahydro-8H-[1,4]diazepino[5′,6′:4,5]thieno[3,2-f]quinolin-8-one], for which the IC50 came to 21 nM.

`C=Cc1cc(-c2ccc3c(ccc4sc5c(c43)NC[C@@H](C)NC5=O)n2)nc(COC)n1` [Example I-13, (R)-3-(2-(methoxymethyl)-6-vinylpyrimidin-4-yl)-10-methyl-9,10,11,12-tetrahydro-8H-[1,4]diazepino[5′,6′:4,5]thieno[3,2-f]quinolin-8-one]: the IC50 was found to be 1 nM.

With `C#Cc1cc(-c2ccc3c(ccc4sc5c(c43)NC[C@@H](C)NC5=O)n2)c(Cl)cn1` [Example I-144, (R)-3-(5-chloro-2-ethynylpyridin-4-yl)-10-methyl-9,10,11,12-tetrahydro-8H-[1,4]diazepino[5′,6′:4,5]thieno[3,2-f]quinolin-8-one], the IC50 was 678 nM.

In the case of `C=Cc1cc(-c2ccc3c(ccc4sc5c(c43)NC[C@@H](C)NC5=O)n2)c(CN2CCOCC2)cn1` [Example I-153, (R)-10-methyl-3-(5-(morpholinomethyl)-2-vinylpyridin-4-yl)-9,10,11,12-tetrahydro-8H-[1,4]diazepino[5′,6′:4,5]thieno[3,2-f]quinolin-8-one], the IC50 came to 23 nM.

Regarding `C[C@@H]1CNc2c(sc3ccc4nc(-c5nc(Cl)ncc5COC5CCOCC5)ccc4c23)C(=O)N1` [Example I-24, (R)-3-(2-chloro-5-(((tetrahydro-2H-pyran-4-yl)oxy)methyl)pyrimidin-4-yl)-10-methyl-9,10,11,12-tetrahydro-8H-[1,4]diazepino[5′,6′:4,5]thieno[3,2-f]quinolin-8-one], the IC50 came out at 98 nM.

With `C=C(C)c1ncc(COCC)c(-c2ccc3c(ccc4sc5c(c43)NC[C@@H](C)NC5=O)n2)n1` [Example I-50, (R)-3-(5-(ethoxymethyl)-2-(prop-1-en-2-yl)pyrimidin-4-yl)-10-methyl-9,10,11,12-tetrahydro-8H-[1,4]diazepino[5′,6′:4,5]thieno[3,2-f]quinolin-8-one], the IC50 turned out to be 1000 nM.

Take `C#Cc1cc(-c2ccc3c(ccc4sc5c(c43)NC[C@@H](C)NC5=O)n2)c(NC)nn1` [Example I-104, (R)-3-(6-ethynyl-3-(methylamino)pyridazin-4-yl)-10-methyl-9,10,11,12-tetrahydro-8H-[1,4]diazepino[5′,6′:4,5]thieno[3,2-f]quinolin-8-one]: the IC50 is 194 nM.

Turning to `C#Cc1cc(-c2ccc3c(ccc4sc5c(c43)NC[C@@H](C)NC5=O)n2)cc(CO)n1` [Example I-98, (R)-3-(2-ethynyl-6-(hydroxymethyl)pyridin-4-yl)-10-methyl-9,10,11,12-tetrahydro-8H-[1,4]diazepino[5′,6′:4,5]thieno[3,2-f]quinolin-8-one], the IC50 came to 60 nM.

On to `C[C@@H]1CNc2c(sc3ccc4nc(-c5nc(Cl)ncc5COC5(C)CCC5)ccc4c23)C(=O)N1` [Example I-27, (R)-3-(2-chloro-5-((1-methylcyclobutoxy)methyl)pyrimidin-4-yl)-10-methyl-9,10,11,12-tetrahydro-8H-[1,4]diazepino[5′,6′:4,5]thieno[3,2-f]quinolin-8-one], for which the IC50 came out at 391 nM.

Consider `C#Cc1cc(-c2ccc3c(ccc4sc5c(c43)NC[C@@H](C)NC5=O)n2)nc(COCC)n1` [Example I-39, (R)-3-(2-(ethoxymethyl)-6-ethynylpyrimidin-4-yl)-10-methyl-9,10,11,12-tetrahydro-8H-[1,4]diazepino[5′,6′:4,5]thieno[3,2-f]quinolin-8-one], for which the half-inhibitory concentration (IC50) was 8 nM.

For `C=Cc1cc(C)nn1-c1ccc2c(ccc3sc4c(c32)NC[C@@H](C)NC4=O)n1` [Example I-236, (R)-10-methyl-3-(3-methyl-5-vinyl-1H-pyrazol-1-yl)-9,10,11,12-tetrahydro-8H-[1,4]diazepino[5′,6′:4,5]thieno[3,2-f]quinolin-8-one], the 50% inhibitory concentration (IC50) amounted to 157 nM.

Consider `C=Cc1cc(-c2ccc3c(ccc4sc5c(c43)NC[C@@H](C)NC5=O)n2)cc(CN2CCC(F)(F)CC2)n1` [Example I-123, (R)-3-(2-((4,4-difluoropiperidin-1-yl)methyl)-6-vinylpyridin-4-yl)-10-methyl-9,10,11,12-tetrahydro-8H-[1,4]diazepino[5′,6′:4,5]thieno[3,2-f]quinolin-8-one], for which the IC50 is 31 nM.

As for `C=Cc1cc(-c2ccc3c(ccc4sc5c(c43)NC[C@@H](C)NC5=O)n2)cc(C2CCN(C)CC2)n1` [Example I-106, (R)-10-methyl-3-(2-(1-methylpiperidin-4-yl)-6-vinylpyridin-4-yl)-9,10,11,12-tetrahydro-8H-[1,4]diazepino[5′,6′:4,5]thieno[3,2-f]quinolin-8-one], the concentration for half-maximal inhibition (IC50) was determined as 8 nM.

(Values after US20240190890A1, “MK2 INHIBITORS AND USES THEREOF” (Bristol-Myers Squibb Company, priority 2022, published 2024).)
